Data on three compounds can be found in the NIST ThermoML archive (doi:10.1021/je0505164).

The conditions of the series: Liquid; for mass density: 298.15 K, 101.33 kPa; for Normal boiling temperature: Ebulliometric method (Recirculating still).

Numbers after ± are expanded uncertainties.

As to `CCO` [ethanol], the mass density (commonly mass per unit of volume) was found to be 785.1 ± 0.3 kg/m3 and the Normal boiling temperature amounted to 78.31 ± 0.2 °C.

`CCCO` [propan-1-ol]: the mass density is 799.6 ± 0.3 kg/m3 and the Normal boiling temperature worked out at 97.06 ± 0.2 °C.

For `CC(C)O` [propan-2-ol], the mass density came to 780.8 ± 0.3 kg/m3 and the Normal boiling temperature came to 82.24 ± 0.2 °C.
